“And” between values parts separate entries of the source, which are not always exact repeats. Equal entries are not always repeated. The source made the active and inactive calls.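 How the source made its calls: active means compounds giving half or more protection of infected cells from virus-caused growth loss, again on retest; inactive means the rest.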 Where a SMILES comes first, the peptide text is derived from it. Bridges are numbered along the chain shown (N, C = ends). Roman numbers before positions name the chains, in order. The star is where a group is joined. Cbz = O=C(OCc1ccccc1)*
Test system: CEM cells HIV-1 protection, formazan growth assay
Experiment: NCI AIDS Antiviral Assay
Details: for IC50: measured here: growth of uninfected CEM cells
Summary of the method: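 Soluble formazan readout of cell growth; CEM cells ± HIV-1; 5 drug concs. ≥50% protection → retest; ≥50% again = moderately active; reproducible 100% = confirmed active.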

SMILES	EC50 [µM]	IC50	outcome
O=c1cc(N=Nc2ccc(O)cc2)[nH]c(=O)[nH]1	> 200	11.5 µM	
Nc1c(Cl)c([N+](=O)[O-])cc2c1OCCCCO2	> 200	123 µM	
C/C(=N/OC(=O)N(C)C)c1cc(Cl)ccc1Cl	> 200	135 µM	
CC1=C[C@H]2C3=C(OC(C)(C)[C@H]2CC1)C(=O)c1c(cc(O)c(C)c1O)C3=O	> 182	34.7 µM	
C/C(N=NC(=S)N1CC2CCC(CC2)C1)=C1\C=CC=CN1O	> 158	1.86 µM	
CC(=O)Oc1c2ccsc2cc2ccsc12	> 75.9	3.31 µM	
C#CCNCC(=O)O	46.8	> 200 µM	
c1ccc2c(c1)ncn2C1CCCCO1 (centres undefined)	> 200	> 200 µM	
Cc1cc(NS(=O)(=O)c2ccc(Nc3c4ccccc4nc4c(C(=O)Nc5ccccc5)cccc34)cc2)no1	> 200	10.5 µM	
NC(=S)N/N=C/c1cc2c3c(c1)CCCN3CCC2	> 200	> 200 µM	
COC(=O)C1(Cc2ccccc2)Cc2ccccc2C1O (centres undefined)	> 200	91.2 µM	
O=C(CCCC[n+]1ccccc1)Sc1ccccc1C(=O)Nc1ccc(S(=O)(=O)Nc2ccccn2)cc1	26.9	115 µM	
CC(=O)OC1CN2CC[C@H](O)C2C(O)[C@@H]1O (some centres undefined)	41.7	1070 µM	
O=C(O)c1cccc[c]1[Sb](=[O])([OH])[OH]	> 200	87.1 µM	
COc1ccc2nc3cc([N+](=O)[O-])ccc3c(Nc3ccc(S(=O)(=O)NC(C)=O)cc3)c2c1	> 200	75.9 µM	
O=S(=O)(O)SCc1ccccc1CSS(=O)(=O)O	> 200	> 200 µM	
O=S1Cc2nc3ccccc3n2C1c1c(F)cccc1F (centres undefined)	> 117		
CCCCC#CCC(C(=O)O)C(=O)O	> 1260	> 1260 µM	
CC(C)C1=CC23CCC4C(C)(C(=O)O)CCCC4(C)C2CC1C1C(=O)N(CCCCCCN2C(=O)C4C5CC6C7(C)CCCC(C)(C(=O)O)C7CCC6(C=C5C(C)C)C4C2=O)C(=O)C13 (centres undefined)	> 269	7.41 µM	
Cc1cc(=S)oc2c3c(ccc12)OC(C)(C)[C@H](OC(=O)C12CCC(C)(C(=O)O1)C2(C)C)[C@@H]3OC(=O)C12CCC(C)(C(=O)O1)C2(C)C (some centres undefined)	0.0575	20 µM	
Cc1cn(COCC[Se]c2ccccc2)c(=O)[nH]c1=O	186	> 200 µM	

SMILES	EC50 [µM]	IC50	outcome
CCc1cccc(C(C)C)c1NC(=O)C(=O)C(CC(=O)Nc1ccc(Cl)c(Cl)c1)C(=O)OC (centres undefined)	> 10.7	> 10.7 µM	
COC(C)(C)C1(O)CCC(C)CC1=O (centres undefined)	> 100	> 100 µM	
COc1ccc2c(c1)[n+](=O)c(C(=O)C/C(=N/NC(=O)c1ccccc1O)C(=O)Nc1ccc(Cl)c(C(F)(F)F)c1)c(C)n2[O-]	> 1.2	> 1.2 µM	
CC1=CC(C)=Nc2ccc(Cl)cc2N1	> 200	91.2 µM and > 200 µM	
CN1CC(=O)N(C)c2ncn(Cc3ccccc3)c2C1=O			inactive
COC1(OC)CCN(Cc2ccccc2)C1=O	> 20	2.69 µM	
CC(=O)O[C@H]1CC[C@@]2(C)C(=CC[C@H]3C(CC#N)[C@@](C)(C#N)CCC32)C1 (some centres undefined)			inactive
CC[C@@H]1ON(C)[C@H]2CN(C)C(=O)[C@@H]12	> 200	> 200 µM	
CC(C)(C)c1cc(C2COC(=O)COCC(=O)OCCOCCOCCO2)cc(C(C)(C)C)c1O (centres undefined)	> 200	95.5 µM	
Cc1ccc([N+](=O)[O-])cc1NC(=O)C(=O)C(C(=O)c1ccccc1F)C1OC(=O)c2ccccc21 (centres undefined)	> 275	8.32 µM	
CCCCCCCCCCCCCCCCOC1N(C2CC(N=[N+]=[N-])C(CO)O2)C(=O)NC(=O)[C@]1(C)Cl (some centres undefined)	> 200	31.6 µM	
COC1=CC(=O)C(OC)=C(C2C(=O)N(C)c3ccccc32)C1=O (centres undefined)	> 200	61.7 µM	
CCOC(=O)CNC(=O)C(CSSCC(NC(=O)OCc1ccccc1)C(=O)OC)NC(=O)C(NC(=O)OCc1ccccc1)C(C)C (centres undefined)	> 200	129 µM	
CN(C)c1cc[n+](-c2c([O-])c3ccccc3n(-c3ccccc3)c2=O)cc1	> 200	195 µM	
O=c1c(SCc2ccc(Br)cc2)c(SCc2ccc(Br)cc2)cnn1-c1ccccc1	> 12.6	6.46 µM	
CC(=O)/C(=C/c1cccc(C#N)c1)C(=O)c1ccccc1	> 36.3	17.4 µM	
O=CCCCC(Sc1ccccc1)Sc1ccccc1			inactive
Clc1ccc(C(OCn2ccnc2)c2nc3ccccc3[nH]2)c(Cl)c1 (centres undefined)	> 200	107 µM	
Cc1c2c(Cl)c3c(c(Cl)c2c(C)c2c(Cl)c4c(c(Cl)c12)C(c1ccccc1)(c1ccccc1)C4(c1ccccc1)c1ccccc1)C(c1ccccc1)(c1ccccc1)C3(c1ccccc1)c1ccccc1	> 100	> 100 µM	
O=C(N/C(=C\c1ccc(Cl)cc1)c1nc2ccccc2[nH]1)c1ccccc1	> 69.2	58.9 µM	
O=C1SS(=O)c2ccccc21 (centres undefined)	> 200	95.5 µM	

SMILES	EC50 [µM]	IC50	outcome
Cc1ccc(/C=C2\Cc3cccc(C)c3C2=O)c(C(=O)O)c1	> 200	105 µM	
Cn1cc2ccccc2c1-c1nc(N)nc(F)n1	> 107	64.6 µM	
Cc1ccc(S(=O)(=O)N/N=C2/CCCOC2)cc1	> 200	138 µM	
O=c1[nH]c(=O)n(C2CC(O)C(CO)O2)cc1OCCCc1ccccc1 (centres undefined)	> 200	> 200 µM	
COC1(C)C(=O)N(C)C1c1ccccc1 (centres undefined)	> 200	> 200 µM	
O=c1/c(=C/c2ccco2)sc2nc3ccccc3n12	> 3.89	> 3.89 µM	
Cc1c2oc(=O)c(C#N)cc2c2ccccn12	> 200	> 200 µM	
C/C(=N/NC(=O)C[n+]1ccccc1)C(CN(CC(C)C)CC(C)C)C(=O)Nc1ccc(C)cc1C (centres undefined)	> 14.1	> 14.1 µM	
N#CC(C#N)=Cc1ccc(C=C(C#N)C#N)cc1	> 200	8.51 µM	
C=CCOCC1C2CCC3(OCCO3)C21 (centres undefined)	> 200	148 µM	
O=C(O)C1CC=CCC1c1c2ccc(=O)cc-2oc2cc(O)ccc12 (centres undefined)	3.98	141 µM	
O=P(OC1=CCCCC1)(c1ccccc1)c1ccccc1	> 200	81.3 µM	
CCOP(=O)(C/C(=N/NC(C)(C)C)C(=O)Nc1nc2ccc(C)cc2s1)OCC	> 58.9	> 58.9 µM	
CC1=CC(C)(C)C(C#N)(C#N)C(N)=C1C#N	> 200	95.5 µM	
Cn1nnc2c(C(N)=O)ncn2c1=O	> 1290	776 µM	
COC(=O)C(Cc1ccccc1)NP(=O)(O)OCC1OC(n2cc(F)c(=O)[nH]c2=O)CC1O (centres undefined)	> 200	58.9 µM	
CC(NCc1c(O)ccc2ccc(=O)oc12)C(=O)O (centres undefined)	> 200	> 200 µM	
Fc1ccc(N=C/C=C/Nc2ccc(F)cc2)cc1			inactive
COCO[C@@H]1C[C@H]2C(=O)N(COC)c3ccccc3C(=O)N2C1	> 200	> 200 µM	
Cc1ccc(/C=N/Nc2ccc3ccccc3n2)s1	> 200	21.4 µM	
Cc1cc(O)c2c(c1O)C(=O)C13C(=C2O)C(=O)C2C(O)C1C1C(O)C3C(=O)C3=C(O)c4c(O)cc(C)c(O)c4C(=O)C321 (centres undefined)	> 45.7	0.0977 µM	

SMILES	EC50 [µM]	IC50	outcome
COC(=O)[C@]1(C)CCCC2(C)C3=C(CCC21)CC1(CC3)SCCS1 (some centres undefined)	> 186	74.1 µM	
O=C1NC(O)c2cccc([N+](=O)[O-])c2O1 (centres undefined)	> 200	61.7 µM	
O=C1C=Cc2c(Cl)sc(Cl)c21	> 200	0.794 µM	
CN1CCN(C2=C(Cl)C3(OCCS3)C(F)(F)C2(F)F)CC1 (centres undefined)	> 132	45.7 µM	
CC1=NN(c2cccc(S(=O)(=O)O)c2)C(=O)C1N=Nc1cc(Cl)cc(S(=O)(=O)O)c1O.O.[Cr] (centres undefined)	89.1	> 100 µM	
CCOC(=O)c1c(N=P(c2ccccc2)(c2ccccc2)c2ccccc2)nnc(-c2ccccc2)c1-c1ccccc1	> 100	> 100 µM	
C[n+]1c(-c2ccc(/C=N/NC(=O)c3ccc(C(=O)N/N=C/c4ccc(-c5cn6ccccc6[n+]5C)cc4)c(O)c3O)cc2)cn2ccccc21	8.32	8.71 µM	
Nc1ccc2nc(-c3ccccn3)c(-c3ccccn3)nc2c1	123	> 200 µM	
CCOC(=O)C(Cc1ccc(O)cc1)NC(=O)C(CSSCC(NC(=O)OCc1ccccc1)C(=O)NC(Cc1ccc(O)cc1)C(=O)OCC)NC(=O)OCc1ccccc1 (stereo not drawn) (I: Cbz-Cys-Tyr-OEt / II: Cbz-Cys-Tyr-OEt; disulfide I:1-II:1; configuration not given here)	> 100	15.5 µM	
CCOC(=O)/C(C)=C(/O)C(=O)OCC	214	1120 µM	
CCc1cccc(C)c1NC(=O)C(=O)Cc1nc2ccccc2o1	> 22.4	> 22.4 µM	
CC1CN=C(N(Cc2ccccc2)C(=O)Nc2ccc(Cl)c(Cl)c2)S1 (centres undefined)	> 200	67.6 µM	
O=c1n(Cc2ccccc2)c(=O)n2c(=O)n(Cc3ccccc3)c(=O)n12	> 200	148 µM	
COC(=O)C1CCCCNC(=O)CCC(NC(=O)OCc2ccccc2)C(=O)N1 (stereo not drawn) (Cbz-Glu-Lys-OMe; lactam 1-2; configuration not given here)	> 200	> 200 µM	
O=C1[C@@H]2C(c3ccccc3)=NO[C@@H]2C(=O)N1c1ccc(Cc2ccc(N3C(=O)[C@H]4C(c5ccccc5)=NO[C@H]4C3=O)cc2)cc1	> 31.6	> 31.6 µM	
Cc1cc(=O)[nH]c2cc(NC(=O)C(CCCN=C(N)N)NC(=O)OCc3ccccc3)ccc12 (centres undefined)	> 200	> 200 µM	
CSc1c(C(=O)Nc2ccc(Cl)cc2)c(N)nn1-c1ccccc1	> 200	> 200 µM	
CCOC(=O)CCSS(=O)(=O)c1ccccc1	> 200	35.5 µM	
C=CCNC(=O)N(CCCCC(NC(C)=O)C(=O)NCc1ccccc1)Cc1ccccc1 (centres undefined)	> 550	372 µM	

From PubChem BioAssay AID179 (DTP/NCI, 2004)
